Entries after “also recorded” stand apart in the source; their conditions may differ. Like-named read-outs stand apart in the source and are kept apart here.
Tests used:
[1] = test system: P30 (H460 cells selected at 30 nM paclitaxel); assay: In vitro cytotoxicity assay of resistant cell line P30; assay type: cell-based, human; details: for IC50: P30 cells (H460 selected at 30 nM paclitaxel), MTT after 48 h; for P30 Resistance Factor: P30 cells relative to parental H460
Description: (§1) A panel of cells lines obtained from American Type Culture Collection (Rockville, Md., USA) was initially assayed against CA-4 to screen for drug sensitivity. […] H460 cells were grown and maintained in RPMI-1640 supplemented with penicillin-streptomycin, Fungizone® and 10% heat inactivated fetal bovine serum (Invitrogen, Carlsbad, Calif., USA) and maintained at 37° C. humidified 5% CO2 atmosphere. H460 parental cell line was selected for resistance to CA-4, paclitaxel or vinblastine by incubation with stepwise increments of each drug, beginning at 2 nM. Cells were treated with the drugs for 24 h, once a week, and every 2-3 weeks, drug dose was increased by 2 nM increments until 30 nM drug resistance was reached. To select non-MDR resistant cell lines, cells were evolved in the presence of verapamil, an inhibitor of P-glycoprotein (P-gp) drug efflux pump that produces a MDR phenotype. Resistance was maintained by acute 24 h exposure to the corresponding drug and verapamil once a month. All cells used for the experiments were grown logarithmically in drug-free medium at least a week before experiments.
(§2) Cytoxicity assays was assessed using a modified MTT assay (Mosmann, 1983). MTT (3-(4,5-dimethylthiazol-2-yl)-2,5-diphenyl tetrazolium bromide, MTT) was purchased from Sigma (St. Louis, Mo., USA). For each drug treatment, triplicate wells were seeded (5.0×10^3/well) and conditioned overnight. Drugs were prepared by serial dilution with RPMI media and added to the corresponding wells. After 48 h, the MTT assay was performed. Percentage survival was calculated as the OD560 of the treated sample divided by the OD560 of the untreated control cell line. Cell lines were tested with cisplatin to test for non-MDR phenotype.
(§3) C30, P30, and V30 cell lines represent H460 parental cells selected at 30 nM CA-4, paclitaxel, and vinblastine, respectively. […] Cisplatin, an anti-cancer agent with a non-tubulin-binding mode of action was assayed against the cell lines to test for […].

[2] = test system: C30 (H460 cells selected at 30 nM CA-4); assay: In vitro cytotoxicity assay of resistant cell line C30; assay type: cell-based, human; details: for C30 Resistance Factor: C30 cells relative to parental H460; for IC50: C30 cells (H460 selected at 30 nM CA-4), MTT after 48 h
Description: as §1, §2, §3

[3] = test system: V30 (H460 cells selected at 30 nM vinblastine); assay: In vitro cytotoxicity assay of resistant cell line V30; assay type: cell-based, human; details: for IC50: V30 cells (H460 selected at 30 nM vinblastine), MTT after 48 h; for V30 Resistance Factor: V30 cells relative to parental H460
Description: as §1, §2, §3

NCI-H460 = assay: In vitro cytotoxicity (modified MTT) assay, H460 parental; assay type: cell-based, human; details: MTT after 48 h
Description: (§4) A panel of cells lines obtained from American Type Culture Collection (Rockville, Md., USA) was initially assayed against CA-4 to screen for drug sensitivity. The human non-small cell lung carcinoma (NSCLC), NCI-H460, was selected for resistance based on significant cytotoxicity. H460 cells were grown and maintained in RPMI-1640 supplemented with penicillin-streptomycin, Fungizone® and 10% heat inactivated fetal bovine serum (Invitrogen, Carlsbad, Calif., USA) and maintained at 37° C. humidified 5% CO2 atmosphere. H460 parental cell line was selected for resistance to CA-4, paclitaxel or vinblastine by incubation with stepwise increments of each drug, beginning at 2 nM. Cells were treated with the drugs for 24 h, once a week, and every 2-3 weeks, drug dose was increased by 2 nM increments until 30 nM drug resistance was reached. To select non-MDR resistant cell lines, cells were evolved in the presence of verapamil, an inhibitor of P-glycoprotein (P-gp) drug efflux pump that produces a MDR phenotype. Resistance was maintained by acute 24 h exposure to the corresponding drug and verapamil once a month. All cells used for the experiments were grown logarithmically in drug-free medium at least a week before experiments.
as §2
To select a moderately sensitive cell line for drug-resistance, a panel of susceptible tumor cell lines was screened for CA-4 cytotoxicity. Table 1 depicts the average in vitro cytotoxicity (IC50) values for three independent experiments with each experiment run in triplicate.

BXPC3 = assay: In vitro cytotoxicity (modified MTT) assay, BXPC3; assay type: cell-based; details: BXPC3, Pancreatic Adenocarcinoma; MTT after 48 h; average of three independent experiments in triplicate
Description: as §4, with “All cells used for the experiments were grown logarithmically in drug-free medium at least a week before experiments.” left out
(§5) Cytoxicity assays was assessed using a modified MTT assay (Mosmann, 1983). […] Percentage survival was calculated as the OD560 of the treated sample divided by the OD560 of the untreated control cell line. […]

DU145 = assay: In vitro cytotoxicity (modified MTT) assay, DU145; assay type: cell-based; details: DU145, Prostate Carcinoma; MTT after 48 h; average of three independent experiments in triplicate
Description: as §4, with “All cells used for the experiments were grown logarithmically in drug-free medium at least a week before experiments.” left out
as §5

HT29 = assay: In vitro cytotoxicity (modified MTT) assay, HT29; assay type: cell-based; details: HT29, Colorectal Adenocarcinoma; MTT after 48 h; average of three independent experiments in triplicate
Description: as §4, with “All cells used for the experiments were grown logarithmically in drug-free medium at least a week before experiments.” left out
as §5

MCF7 = assay: In vitro cytotoxicity (modified MTT) assay, MCF7; assay type: cell-based; details: MCF7, Mammary Gland Adenocarcinoma; MTT after 48 h; average of three independent experiments in triplicate
Description: as §4, with “All cells used for the experiments were grown logarithmically in drug-free medium at least a week before experiments.” left out
as §5

CEM = assay: In vitro cytotoxicity (modified MTT) assay, CEM; assay type: cell-based; details: Acute Lymphoblastic Leukemia, MTT after 48 h, average of three independent experiments in triplicate
Description: as §4, with “All cells used for the experiments were grown logarithmically in drug-free medium at least a week before experiments.” left out
as §5

MOLT4 = assay: In vitro cytotoxicity (modified MTT) assay, MOLT4; assay type: cell-based; details: MOLT4, Acute Lymphoblastic Leukemia; MTT after 48 h; average of three independent experiments in triplicate
Description: as §4, with “All cells used for the experiments were grown logarithmically in drug-free medium at least a week before experiments.” left out
as §5

[4] = Homo sapiens, NCI-H460, H460 parental cells, Table 2, read-out: H460 wild-type IC50
[5] = H460 parental cells, Table 2, read-out: H460 wild-type IC50

Compound | IC50 ([1]; Homo sapiens, NCI-H460) [nM] | P30 Resistance Factor [1] | C30 Resistance Factor [2] | IC50 ([2]; Homo sapiens, NCI-H460) [nM] | IC50 ([3]; Homo sapiens, NCI-H460) [nM] | V30 Resistance Factor [3] | IC50 (NCI-H460; [4]) [nM] | IC50 [1] [nM] | IC50 [2] [nM] | IC50 [3] [nM] | IC50 (NCI-H460; [5]) [nM] | further results
CC(=O)O[C@H]1C(=O)[C@@]2(C)[C@H]([C@H](OC(=O)c3ccccc3)[C@]3(O)C[C@H](OC(=O)[C@H](O)[C@@H](NC(=O)c4ccccc4)c4ccccc4)C(C)=C1C3(C)C)[C@]1(OC(C)=O)CO[C@@H]1C[C@@H]2O [Paclitaxel] | 77 ± 4.9 | 9.6 ± 1.0 | 9.9 ± 0.6 | 80 ± 2 | 87 ± 3.6 | 10.8 ± 1.0 | 8.1 ± 0.4 |  |  |  |  | P30 Resistance Factor ([1]; listed as paclitaxel): tenfold; C30 Resistance Factor ([2]; listed as paclitaxel): tenfold; V30 Resistance Factor ([3]; listed as paclitaxel): eleven fold; also recorded: tenfold
CC[C@]1(O)C[C@@H]2CN(CCc3c([nH]c4ccccc34)[C@@](C(=O)OC)(c3cc4c(cc3OC)N(C)[C@H]3[C@@](O)(C(=O)OC)[C@H](OC(C)=O)[C@]5(CC)C=CCN6CC[C@]43[C@@H]65)C2)C1 [Vinblastine] | 15.7 ± 4.2 | 2.7 ± 0.7 | 1.0 ± 0.0 | 6 ± 0.3 | 26.3 ± 2.1 | 4.5 ± 0.4 | 5.9 ± 0.1 |  |  |  |  | P30 Resistance Factor ([1]; listed as vinblastine): threefold; C30 Resistance Factor ([2]; listed as vinblastine): negligibly resistant; V30 Resistance Factor ([3]; listed as vinblastine): fivefold
COc1ccc(/C=C\c2cc(OC)c(OC)c(OC)c2)cc1O [CA-4, Combretastatin A-4] |  |  |  |  |  |  |  | 8.5 ± 0.2 | 19 | 9.2 ± 0.6 | 7 ± 0.6 | IC50 (BXPC3): 57000 nM; IC50 (DU145): 7.7 nM; IC50 (HT29): 55100 nM; IC50 (MCF7): 165000 nM; IC50 (CEM): 0.25 nM; IC50 (MOLT4): 4.1 nM; IC50 (NCI-H460; H460, Non-Small Cell Lung Carcinoma, Table 1 screen, average of three independent experiments in triplicate, read-out: IC50): 7.3 nM
N.N.[Cl][Pt][Cl] [Cisplatin] |  |  |  |  |  |  |  | 25.3 ± 3.1 | 16.7 ± 3.2 | 21.7 ± 0.6 | 20 ± 2.6 | 

— US20050272824A1, “Methods for monitoring combretastatin resistance” (priority 2004, published 2005)
